Laboratory results taken from patent US20160045505A1, “COMPOUNDS AND COMPOSITIONS FOR THE TREATMENT OF PARASITIC DISEASES” (NOVARTIS AG, priority 2013, published 2016).
Where two headings read alike, the source gives them in different places.

Key:
[1] = test system: Leishmania donovani axenic amastigote parasites; assay: Leishmania donovani axenic amastigote proliferation assay (Cell TiterGlo luminescence, 2 day incubation); format: cell-based; settings: read-out: L. donovani amastigotes EC50
[2] = test system: L. donovani HU3 strain in mouse peritoneal macrophages; assay: Assay for proliferation of Leishmania parasites in infected mouse peritoneal macrophages (SybrGreen staining, high-content imaging, 5 days); format: cell-based, Leishmania donovani; settings: L. donovani in mouse peritoneal macrophages, read-out: L. donovani Macrophage EC50
[3] = test system: Trypanosoma brucei Lister 427 strain, bloodstream form; assay: Assay for proliferation of kinetoplastid parasite Trypanosoma brucei (Cell Titer Glo, 48 hours); format: cell-based; settings: T. brucei Lister 427 bloodstream form, read-out: T. brucei EC50
Description: Assay for Proliferation of Kinetoplastid Parasite Trypanosoma brucei.
The proliferation is quantified by the addition of Cell Titer Glo (Promega®) a luminescent cell viability assay that measures the number of viable cells in culture based on the quantification of cellular ATP amount, which is an indicator of metabolically active cells.
The following assay illustrates the invention without in any way limiting the scope of the invention. This parasite proliferation assay measures the increase in parasite growth using an assay that measures ATP activity, Cell Titer Glo®.
Trypanosoma brucei Lister 427 strain is grown in HMI-9 Trypanosome media for T. brucei bloodstream form. 30 μl of HMI-9 media is dispensed into 384 well assay plates. 200 nl of compounds of the invention (in DMSO), including anti-trypanosome controls (Pentamidine and suramin), are then transferred into the assay plates, as well as DMSO alone to serve as a negative control for inhibition. Then 25 μl of a suspension of T. brucei culture in HMI-9 media is dispensed into the assay plates. The final concentration of parasites in culture corresponds to 1.7% of 0.5 uM ATP activity with Cell Titer Glo® in HMI-9 media. The plates are placed in a 37° C. incubator for 48 hours in an atmospheric environment containing 5% CO2. 40 μl of Cell Titer Glo® is dispensed into the plates. The plates are then read for luminescence. The percentage inhibition of 50%, EC50, is calculated for each compound.

[4] = test system: Trypanosoma cruzi amastigotes (Tulahuen strain expressing Lac-Z) cultured in 3T3 fibroblast cells; assay: microbe, parasite or virus in culture; format: cell-based; settings: Trypanosoma cruzi, TULAHUEN, Fibroblast, T. cruzi amastigotes in 3T3 fibroblast cells, read-out: T cruzi EC50
[5] = Leishmania donovani, axenic amastigotes, inhibition of proliferation
[6] = Leishmania donovani, Peritoneal macrophage, inhibition of proliferation
[7] = Trypanosoma brucei, inhibition of proliferation
[8] = Leishmania donovani, L. donovani axenic amastigotes
[9] = Leishmania donovani, Peritoneal macrophage

| Structure (SMILES) | EC50 [1, 5] | EC50 [2, 6] | EC50 [3, 7] | EC50 ([4]; inhibition of proliferation) | EC50 [1, 8] | EC50 [2, 9] | EC50 ([3]; Trypanosoma brucei) | EC50 [4] | EC50 ([1]; axenic amastigotes, inhibition of proliferation) | EC50 ([2]; inhibition of proliferation) | EC50 ([3]; inhibition of proliferation) |
| --- | --- | --- | --- | --- | --- | --- | --- | --- | --- | --- | --- |
| Cc1nc(C)c(C(=O)Nc2ccc(F)c(-c3cn4cc(NC(=O)C5CCCO5)cnc4n3)c2)o1 (centres unmarked) [Compound 149] | 0.241 µM | 0.617 µM | 0.516 µM | 1.88 µM |  |  |  |  |  |  |  |
| CC1(C(=O)Nc2cnc3nc(-c4cc(NC(=O)N5CCCC5)ccc4F)cn3c2)CCC1 [Compound 145] | 0.223 µM | 0.464 µM | 0.045 µM | 1.73 µM |  |  |  |  |  |  |  |
| Cn1ccnc1C(=O)Nc1cnc2nc(-c3cc(NC(=O)N4CCCC4)ccc3F)cn2c1 [Compound 144] | 0.555 µM | > 50 µM | 0.164 µM | > 20 µM |  |  |  |  |  |  |  |
| CN(C)C(=O)Nc1ccc(F)c(-c2cn3cc(C(F)F)cnc3n2)c1 [Compound 239] | 0.515 µM | 2.2 µM | 0.35 µM | 0.372 µM |  |  |  |  |  |  |  |
| Cc1nc(C(=O)Nc2ccc(F)c(-c3cn4cc(NC(=O)OC(C)C)cnc4n3)c2)c(C(F)(F)F)o1 [Compound 69] | 1.4 µM | 3.3 µM | 3.12 µM | 0.403 µM |  |  |  |  |  |  |  |
| O=C(Nc1ccc(F)c(-c2cn3cc(C(F)(F)F)cnc3n2)c1)N1CCC1 [Compound 299] | 0.092 µM | 0.178 µM | 0.034 µM | 0.045 µM |  |  |  |  |  |  |  |
| CC(C)OC(=O)Nc1cnc2nc(-c3cc(NC(=O)C4CC4)ccc3Cl)cn2c1 [Compound 245] | 1.69 µM | 2.03 µM | 1.4 µM | 1.13 µM |  |  |  |  |  |  |  |
| CC(C)OC(=O)Nc1cnc2nc(-c3cc(NC(=O)N4CCC5(C4)CC5(F)F)ccc3Cl)cn2c1 (centres unmarked) [Compound 261] | 4.32 µM | 7.03 µM | 1.22 µM | 1.9 µM |  |  |  |  |  |  |  |
| O=C(Nc1ccc(F)c(-c2cn3cc(Cl)cnc3n2)c1)N1CCC1 [Compound 237] | 0.217 µM | 0.877 µM | 0.122 µM | 0.229 µM |  |  |  |  |  |  |  |
| Cc1nc(C)c(C(=O)Nc2ccc(F)c(-c3cn4cc(-c5ccc(N6CCN(C(C)C)CC6)cc5)cnc4n3)c2)o1 [Compound 382] |  |  |  |  | 3.88 µM | 10.7 µM | 2.6 µM | 1.39 µM |  |  |  |
| Cc1nc(C)c(C(=O)Nc2ccc(F)c(-c3cn4cc(-c5ccc(S(C)(=O)=O)cc5F)cnc4n3)c2)o1 [Compound 362] | 0.403 µM | > 34.4 µM | 0.345 µM | > 20 µM |  |  |  |  |  |  |  |
| CC1(O)CN(c2cnc3nc(-c4cc(NC(=O)N5CCCC5)ccc4Cl)cn3c2)C1 [Compound 489] |  |  |  |  | 1.77 µM | 7.79 µM | 0.152 µM | 6.71 µM |  |  |  |
| Cc1nc(C)c(C(=O)Nc2ccc(F)c(-c3cn4cc(NC(=O)C5CCCCO5)cnc4n3)c2)o1 (single isomer, unassigned) [Compound 184] |  |  |  | 0.565 µM |  |  |  |  | 0.146 µM | 0.333 µM | 0.175 µM |
| O=C(Nc1ccc(F)c(-c2cn3cc(C4CC4)cnc3n2)c1)N1CC(F)(F)C1 [Compound 604] |  |  |  |  | 0.022 µM | 0.041 µM | 0.051 µM | 0.046 µM |  |  |  |
| C=C(C)OC(=O)Nc1cnc2nc(-c3cc(NC(=O)c4oc(C)nc4C)ccc3F)cn2c1 [Compound 311] | 0.162 µM | 12 µM | 1.67 µM | 5.58 µM |  |  |  |  |  |  |  |
| CC(C)OC(=O)Nc1cnc2nc(-c3cc(NC(=O)N4CC(F)(F)C(F)(F)C4)ccc3Cl)cn2c1 [Compound 266] | 1.26 µM | 3.37 µM | 1.45 µM | 1.16 µM |  |  |  |  |  |  |  |
| CC(C)c1cnc2nc(-c3cc(NC(=O)N(C)C)ccc3F)cn2c1 [Compound 417] |  |  |  |  | 0.25 µM | 1.3 µM | 0.145 µM | 0.135 µM |  |  |  |
| CC(C)OC(=O)Nc1cnc2nc(-c3cc(NC(=O)NC4CCC4)ccc3Cl)cn2c1 [Compound 269] | 9.59 µM | 15.1 µM | 3.57 µM | 4.16 µM |  |  |  |  |  |  |  |
| Cc1nc(C)c(C(=O)Nc2ccc(F)c(-c3cn4cc(-c5ccc(CCO)cc5)cnc4n3)c2)o1 [Compound 349] | 0.074 µM | 0.672 µM | 0.069 µM | 0.18 µM |  |  |  |  |  |  |  |

| Structure (SMILES) | EC50 [1, 5] | EC50 [2, 6] | EC50 [3, 7] | EC50 ([4]; inhibition of proliferation) | EC50 [1, 8] | EC50 [2, 9] | EC50 ([3]; Trypanosoma brucei) | EC50 [4] | EC50 ([1]; axenic amastigotes, inhibition of proliferation) | EC50 ([2]; inhibition of proliferation) | EC50 ([3]; inhibition of proliferation) |
| --- | --- | --- | --- | --- | --- | --- | --- | --- | --- | --- | --- |
| Cc1nc(C)c(C(=O)Nc2ccc(F)c(-c3cn4cc(NC(=O)c5c[nH]cn5)cnc4n3)c2)o1 [Compound 167] | 10.8 µM | > 50 µM | 0.904 µM | > 20 µM |  |  |  |  |  |  |  |
| Cc1n[nH]c(C(=O)Nc2cnc3nc(-c4cc(NC(=O)c5oc(C)nc5C)ccc4F)cn3c2)n1 [Compound 171] | 1.54 µM | > 50 µM | 1.41 µM | > 20 µM |  |  |  |  |  |  |  |
| Cc1nc(C)c(C(=O)Nc2ccc(F)c(-c3cn4cc(NCC(C)(C)C)cnc4n3)c2)o1 [Compound 465] |  |  |  |  | 0.329 µM | 0.289 µM | 0.153 µM | 0.146 µM |  |  |  |
| CC(=O)N(C)C1CCN(C(=O)Nc2ccc(Cl)c(-c3cn4cc(NC(=O)OC(C)C)cnc4n3)c2)C1 (centres unmarked) [Compound 276] | > 25 µM | > 50 µM | 8.72 µM | > 20 µM |  |  |  |  |  |  |  |
| CC(=O)c1ccc(-c2cnc3nc(-c4cc(NC(=O)c5oc(C)nc5C)ccc4F)cn3c2)cn1 [Compound 437] |  |  |  |  | 0.08 µM | 1.25 µM | 0.403 µM | 0.682 µM |  |  |  |
| Cc1nnc(C(=O)Nc2cccc(-c3cn4cc(NC(=O)OC(C)C)cnc4n3)c2)o1 [Compound 526, isopropyl (2-(3-(5-methyl-1,3,4-oxadiazole-2-carboxamido)phenyl)imidazo[1,2-a]pyrimidin-6-yl)carbamate] |  |  |  |  | > 25 µM | > 50 µM | > 50 µM | > 20 µM |  |  |  |
| CCN(CC)c1cnc2nc(-c3cc(NC(=O)c4oc(C)nc4C)ccc3F)cn2c1 [Compound 471] |  |  |  |  | 0.601 µM | 0.637 µM | 0.159 µM | 0.147 µM |  |  |  |
| Cc1nc(C)c(C(=O)Nc2ccc(F)c(-c3cn4cc(-c5cncn5C)cnc4n3)c2)o1 [Compound 370] | 5.47 µM | 3.61 µM | 0.386 µM | 7.37 µM |  |  |  |  |  |  |  |
| Cc1ncoc1C(=O)Nc1ccc(F)c(-c2cn3cc(NC(=O)OC(C)C)cnc3n2)c1 [Compound 76] | 0.305 µM | 4.22 µM | 0.348 µM | 0.636 µM |  |  |  |  |  |  |  |
| COCCN(C(=O)OC(C)C)c1cnc2nc(-c3cc(NC(=O)c4oc(C)nc4C)ccc3F)cn2c1 [Compound 555] |  |  |  |  | 3.11 µM | 5.47 µM | 1.57 µM | 1.32 µM |  |  |  |
| Cc1nc(C)c(C(=O)Nc2ccc(F)c(-c3cn4cc(-c5ccccc5S(C)(=O)=O)cnc4n3)c2)o1 [Compound 397] |  |  |  |  | 0.337 µM | 0.448 µM | 0.068 µM | 0.2 µM |  |  |  |
| CC(C)OC(=O)Nc1cnc2nc(-c3cc(NC4=NCC(C)O4)ccc3F)cn2c1 (centres unmarked) [Compound 501] |  |  |  |  | > 25 µM | > 50 µM | 3.14 µM | 10.5 µM |  |  |  |
| Cc1nc(C)c(C(=O)Nc2ccc(F)c(-c3cn4cc(-c5cc(F)ccn5)cnc4n3)c2)o1 [Compound 435] |  |  |  |  | 0.019 µM | 0.049 µM | 0.042 µM | 0.016 µM |  |  |  |
| Cc1nc(C)c(C(=O)Nc2ccc(F)c(-c3cn4cc(-c5cnn(CCN6CCOCC6)c5)cnc4n3)c2)o1 [Compound 388] |  |  |  |  | 1.01 µM | 2.95 µM | 0.415 µM | 3.53 µM |  |  |  |
| Cc1nc(C)c(C(=O)Nc2ccc(F)c(-c3cn4cc(N(C)C)cnc4n3)c2)o1 [Compound 470] |  |  |  |  | 0.252 µM | 0.689 µM | 0.159 µM | 0.148 µM |  |  |  |
| Cc1nc(C)c(C(=O)Nc2ccc(F)c(-c3cn4cc(NC(=O)C5CCOCC5)cnc4n3)c2)o1 [Compound 158] | 1.92 µM | > 50 µM | 4.1 µM | > 20 µM |  |  |  |  |  |  |  |
| Cc1nc(C)c(C(=O)Nc2ccc(F)c(-c3cn4cc(-c5nccn5C)cnc4n3)c2)o1 [Compound 427] |  |  |  |  | 0.237 µM | 0.438 µM | 0.163 µM | 1.33 µM |  |  |  |
| Cc1nc(C)c(C(=O)Nc2ccc(F)c(-c3cn4cc(NC(=O)[C@H]5CCCO5)cnc4n3)c2)o1 [Compound 164] | 0.28 µM | 0.913 µM | 0.196 µM | 1.99 µM |  |  |  |  |  |  |  |
| CC(C)OC(=O)Nc1cnc2nc(-c3cc(NC(=O)N(C)CC(F)(F)F)ccc3Cl)cn2c1 [Compound 255] | 0.364 µM | 0.502 µM | 0.122 µM | 0.329 µM |  |  |  |  |  |  |  |
